Tests used:
[1] = target: 72 kDa type IV collagenase (Homo sapiens, UniProt P08253); assay: Inhibitory constant against matrix metalloprotease-2
[2] = target: T1, Interstitial collagenase (Homo sapiens, UniProt P03956); assay: Inhibitory constant against matrix metalloprotease-1
T1 sequence (P03956 whole entry): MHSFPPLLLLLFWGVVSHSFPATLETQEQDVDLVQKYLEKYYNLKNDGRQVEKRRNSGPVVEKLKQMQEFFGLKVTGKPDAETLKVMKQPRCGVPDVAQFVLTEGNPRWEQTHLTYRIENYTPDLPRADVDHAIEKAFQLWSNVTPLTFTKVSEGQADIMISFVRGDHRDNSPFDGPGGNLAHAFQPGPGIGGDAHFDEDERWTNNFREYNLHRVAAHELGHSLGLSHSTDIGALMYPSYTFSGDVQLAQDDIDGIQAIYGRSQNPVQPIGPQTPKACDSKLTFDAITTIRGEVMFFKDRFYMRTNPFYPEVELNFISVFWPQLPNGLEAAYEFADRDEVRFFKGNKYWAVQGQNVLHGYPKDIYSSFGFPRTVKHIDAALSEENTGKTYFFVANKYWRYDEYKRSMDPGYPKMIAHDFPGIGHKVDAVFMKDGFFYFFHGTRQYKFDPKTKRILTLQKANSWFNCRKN

[3] = target: Stromelysin-1 (Homo sapiens, UniProt P08254); assay: Inhibitory constant against matrix metalloprotease-3
Sequence of Stromelysin-1 (P08254 whole entry): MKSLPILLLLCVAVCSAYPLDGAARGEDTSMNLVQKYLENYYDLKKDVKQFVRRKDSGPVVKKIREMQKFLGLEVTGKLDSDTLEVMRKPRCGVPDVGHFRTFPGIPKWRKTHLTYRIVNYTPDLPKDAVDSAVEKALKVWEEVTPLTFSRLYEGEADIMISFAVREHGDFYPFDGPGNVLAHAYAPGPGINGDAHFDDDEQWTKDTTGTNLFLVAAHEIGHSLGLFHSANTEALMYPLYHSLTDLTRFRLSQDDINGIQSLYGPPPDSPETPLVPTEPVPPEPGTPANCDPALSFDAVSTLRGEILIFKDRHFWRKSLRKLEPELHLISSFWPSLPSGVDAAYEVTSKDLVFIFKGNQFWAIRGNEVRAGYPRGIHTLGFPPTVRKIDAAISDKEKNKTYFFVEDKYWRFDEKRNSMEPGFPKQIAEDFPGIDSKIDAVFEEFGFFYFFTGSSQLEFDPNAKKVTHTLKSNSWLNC

Sequence of 72 kDa type IV collagenase (P08253 whole entry): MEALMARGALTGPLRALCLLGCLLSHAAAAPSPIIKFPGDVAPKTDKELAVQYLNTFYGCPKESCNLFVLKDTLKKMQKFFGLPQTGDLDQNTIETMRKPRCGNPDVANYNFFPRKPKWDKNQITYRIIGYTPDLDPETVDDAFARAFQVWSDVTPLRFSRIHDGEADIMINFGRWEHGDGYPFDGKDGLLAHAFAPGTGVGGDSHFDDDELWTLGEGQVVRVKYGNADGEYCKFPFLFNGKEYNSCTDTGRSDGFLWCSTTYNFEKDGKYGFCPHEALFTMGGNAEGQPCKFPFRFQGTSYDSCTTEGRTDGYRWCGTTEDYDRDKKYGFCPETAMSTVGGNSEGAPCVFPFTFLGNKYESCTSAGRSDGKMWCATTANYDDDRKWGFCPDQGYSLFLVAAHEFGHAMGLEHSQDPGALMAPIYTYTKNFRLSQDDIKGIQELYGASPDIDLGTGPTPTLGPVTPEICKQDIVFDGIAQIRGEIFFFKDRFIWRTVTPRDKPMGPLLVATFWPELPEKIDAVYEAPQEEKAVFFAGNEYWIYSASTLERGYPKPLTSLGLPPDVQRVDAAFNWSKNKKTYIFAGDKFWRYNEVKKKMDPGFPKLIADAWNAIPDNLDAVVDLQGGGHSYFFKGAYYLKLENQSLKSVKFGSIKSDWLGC

Compound	Ki [1]	Ki [2]	Ki [3]
O=C(C[C@@H](CCCc1ccccc1)C(=O)N[C@@H](CC1CCCCC1)C(=O)NCCC(=O)NCCc1ccc(S(=O)(=O)O)cc1)NO	0.59 nM	942 nM	81.5 nM
NS(=O)(=O)c1ccc(CCNC(=O)CCNC(=O)[C@H](CC2CCCCC2)NC(=O)[C@H](CCCc2ccc(Cl)cc2)CC(=O)NO)cc1	0.01 nM	382 nM	6.35 nM
O=C(C[C@@H](CCCc1ccc(Cl)cc1)C(=O)N[C@@H](CC1CCCCC1)C(=O)NCCC(=O)NCCC(=O)N1CCOCC1)NO	0.02 nM	319 nM	1.38 nM
Cc1ccc(CCC[C@H](CC(=O)NO)C(=O)N[C@@H](CC2CCCCC2)C(=O)NCCC(=O)NCCCCN(C)C)cc1	0.03 nM	313 nM	5.87 nM
Cc1ccc(CCC[C@H](CC(=O)NO)C(=O)N[C@@H](CC2CCCCC2)C(=O)NCCC(=O)NCCNS(=O)(=O)N2CCOCC2)cc1	0.03 nM	385 nM	2.75 nM
COC(=O)CCNC(=O)CCNC(=O)[C@H](CC1CCCCC1)NC(=O)[C@H](CCCc1ccc(Cl)cc1)CC(=O)NO	0.01 nM	135 nM	0.96 nM
COc1ccc(CCC[C@H](CC(=O)O)C(=O)N[C@@H](CC2CCCCC2)C(=O)NCCc2ccc(S(N)(=O)=O)cc2)cc1		100000 nM	
O=C(O)CCNC(=O)CCNC(=O)[C@H](CC1CCCCC1)NC(=O)[C@H](CCCc1ccc(Cl)cc1)CC(=O)NO	0.01 nM	193 nM	0.8 nM
Cc1ccc(CCC[C@H](CC(=O)NO)C(=O)N[C@@H](CC2CCCCC2)C(=O)NCCC(=O)NCCc2ccc(S(N)(=O)=O)cc2)cc1	0.02 nM	329 nM	2.98 nM
Cc1ccc(CCC[C@H](CC(=O)O)C(=O)N[C@@H](CC2CCCCC2)C(=O)NCCCCN2CCOCC2)cc1		100000 nM	1600 nM
Cc1ccc(CCC[C@H](CC(=O)NO)C(=O)N[C@@H](CC2CCCCC2)C(=O)NCCC(=O)NCCN2CCOCC2)cc1	0.01 nM	455 nM	6.26 nM
Cc1ccc(CCC[C@H](CP(=O)(O)O)C(=O)N[C@@H](CC2CCCCC2)C(=O)NCCc2ccccc2)cc1		17000 nM	
NC(=O)CCCNC(=O)[C@H](CC1CCCCC1)NC(=O)[C@H](CCCc1ccccc1)CC(=O)O			1090 nM
O=C(C[C@@H](CCCc1ccc(Cl)cc1)C(=O)N[C@@H](CC1CCCCC1)C(=O)NCCC(=O)NCCNS(=O)(=O)N1CCOCC1)NO	0.01 nM	302 nM	1.73 nM
Cc1ccc(CCC[C@H](CC(=O)NO)C(=O)N[C@@H](CC2CCCCC2)C(=O)NCCC(=O)NCCCCN2CCOCC2)cc1	0.02 nM	642 nM	2.61 nM
CN(C)CCCCNC(=O)CCNC(=O)[C@H](CC1CCCCC1)NC(=O)[C@H](CCCc1ccc(Cl)cc1)CC(=O)NO	0.05 nM	1050 nM	22.2 nM
O=C(C[C@@H](CCCc1ccc(Cl)cc1)C(=O)N[C@@H](CC1CCCCC1)C(=O)NCCC(=O)NCCCCN1CCOCC1)NO	0.03 nM	313 nM	2.39 nM

Source: ChEMBL document CHEMBL1134761, “A new concept for multidimensional selection of ligand conformations (MultiSelect) and multidimensional scoring (MultiScore) of protein-ligand binding affinities” (J Med Chem, 2001)
